The experiment concerns the target AMPK. The experiment is described as follows: AMPK activation, enzyme-linked immunosorbent assay. As to conditions: ELISA. The procedure: Compounds 1-8 were assayed for their ability to activate AMPK using an enzyme-linked immunosorbent assay.
With `N#Cc1ccc(CN2CCC(NC(=O)c3ccc(C(=O)N4CCN(Cc5ccc(C(F)(F)F)cc5)CC4)cn3)CC2)cc1` [Compound 3, N-(1-(4-cyanobenzyl)piperidin-4-yl)-5-(4-(4-(trifluoromethyl)benzyl)piperazine-1-carbonyl)picolinamide], the EC50 (as a rule, the concentration needed to bring the measured effect to its halfway point) is less than 500 nM.

`N#Cc1ccc(CN2CC[C@H](NC(=O)c3ccc(C(=O)N4CCN(c5ccc(Cl)cc5)CC4)cn3)C2)cc1` [Compound 6, (S)-5-(4-(4-chlorophenyl)piperazine-1-carbonyl)-N-(1-(4-cyanobenzyl)pyrrolidin-3-yl)picolinamide] had a concentration for a half-maximal effect (EC50) of 500 to 1000 nM.

In turn, `N#Cc1ccc(CN2CCC(NC(=O)c3ccc(C(=O)N4CCN(Cc5ccc(F)cc5)CC4)cn3)CC2)cc1` [Compound 2, N-(1-(4-cyanobenzyl)piperidin-4-yl)-5-(4-(4-fluorobenzyl)piperazine-1-carbonyl)picolinamide] registered an EC50 of less than 500 nM.

In turn, `O=C(NC1CCN(Cc2ccc(C(F)(F)F)cc2)C1)c1ccc(C(=O)N2CCN(c3ccc(Cl)cc3)CC2)cn1` (stereo not shown) [Compound 8, 5-(4-(4-chlorophenyl)piperazine-1-carbonyl)-N-(1-(4-(trifluoromethyl)benzyl)pyrrolidin-3-yl)picolinamide] returned a 50% effective concentration (EC50) of 1000 to 5000 nM.

Source of the values: patent publication US8362235B2, “Carboxamide compounds and methods for using the same” (Rigel Pharmaceuticals, Inc., priority 2009, dated 2013).
